# Data from patent US9765075B2, “Substituted bridged urea analogs as sirtuin modulators” (GLAXOSMITHKLINE LLC, priority 2013, dated 2017).
# Biological target: T1, SIRT1 (Homo sapiens, UniProt Q96EB6)
# T1 sequence (Q96EB6 1-747): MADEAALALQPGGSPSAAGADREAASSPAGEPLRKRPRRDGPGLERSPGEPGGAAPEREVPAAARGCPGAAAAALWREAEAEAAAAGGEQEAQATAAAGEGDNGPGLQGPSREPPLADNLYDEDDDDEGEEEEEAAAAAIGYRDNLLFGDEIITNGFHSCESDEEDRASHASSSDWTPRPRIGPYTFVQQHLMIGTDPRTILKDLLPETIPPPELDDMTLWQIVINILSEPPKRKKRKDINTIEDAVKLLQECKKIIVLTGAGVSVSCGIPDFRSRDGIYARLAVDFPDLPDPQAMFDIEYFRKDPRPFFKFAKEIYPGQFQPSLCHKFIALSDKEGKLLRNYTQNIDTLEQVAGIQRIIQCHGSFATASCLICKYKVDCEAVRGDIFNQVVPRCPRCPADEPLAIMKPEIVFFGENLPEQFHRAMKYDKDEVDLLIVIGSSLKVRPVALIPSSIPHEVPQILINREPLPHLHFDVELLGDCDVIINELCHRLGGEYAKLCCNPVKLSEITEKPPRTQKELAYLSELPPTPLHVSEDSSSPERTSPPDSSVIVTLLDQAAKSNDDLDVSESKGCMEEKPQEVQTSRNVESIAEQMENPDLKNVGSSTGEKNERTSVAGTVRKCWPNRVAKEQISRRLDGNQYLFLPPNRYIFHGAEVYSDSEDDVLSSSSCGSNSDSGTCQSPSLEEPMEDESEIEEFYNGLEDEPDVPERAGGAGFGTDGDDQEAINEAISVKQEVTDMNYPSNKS
# Experiment: Trp mass spectrometry assay (SIRT1 activation)
# Format: biochemical
# Details: Trp peptide substrate; for Tryp AVG EC1.5 (μM): concentration of test compound that results in 150% activation of SIRT1; for Emax: percent maximum fold activation of SIRT1, read-out: Tryp % Fold Act
# Outline: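 N-His-tagged SIRT1 (10 nM), expressed in E. coli, was incubated with 0.5 μM Ac-RHKK(Ac)W-NH2 peptide and 120 μM NAD+ for 25 min at 25 °C in HEPES pH 7.5 with […]. The reaction was stopped with formic acid and O-acetyl-ADP-ribose or deacetylated peptide was quantified by mass spectrometry. Results are given as EC1.5 and percent maximal activation relative to DMSO control.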
Tryp AVG EC1.5 (μM),Emax,Structure (SMILES)
B (EC1.5 1-25 μM),≥ 150%,O=C(Nc1cnccn1)N1c2nc(-c3cncc(F)c3)ccc2N2CCC1CC2 [Example 555]
A (EC1.5<1 μM),≥ 150%,O=C(Nc1cccnc1)N1c2nc(-c3cncc(C(F)(F)F)c3)ccc2N2CC[C@H]1C2 [Example 556]
A (EC1.5<1 μM),≥ 150%,N#Cc1cncc(-c2ccc3c(n2)N(C(=O)Nc2ccccn2)[C@H]2CCCN3C2)c1 [Example 557]
B (EC1.5 1-25 μM),≥ 150%,N#Cc1cncc(-c2ccc3c(n2)N(C(=O)Nc2ccncn2)[C@H]2CCCN3C2)c1 [Example 558]
A (EC1.5<1 μM),≥ 150%,O=C(Nc1cncc(F)c1)N1c2nc(-c3cccc(N4CCOCC4)c3)ccc2N2CCC[C@H]1C2 [Example 559]
B (EC1.5 1-25 μM),≥ 150%,O=C(Nc1cnccn1)N1c2nc(-c3cccc(N4CCOCC4)c3)ccc2N2CCC[C@H]1C2 [Example 560]
B (EC1.5 1-25 μM),≥ 150%,Cc1cc(-c2ccc3c(n2)N(C(=O)Nc2cnc(OC[C@@H](O)CO)cn2)[C@H]2CCN3C2)ccn1 [Example 561]
A (EC1.5<1 μM),≥ 150%,O=C(Nc1cc(Br)cc(-c2cnco2)c1)N1c2nc(-c3cccc(C(F)(F)F)c3)ccc2N2CC[C@H]1C2 [Example 562]
A (EC1.5<1 μM),≥ 150%,O=C(O)c1cc(NC(=S)NCc2ccc(NC(=O)N3c4nc(-c5cccc(C(F)(F)F)c5)ccc4N4CCC[C@H]3C4)cc2)ccc1-c1c2ccc(=O)cc-2oc2cc(O)ccc12 [Example 563]
B (EC1.5 1-25 μM),≥ 150%,Cc1nc(NC(=O)N2c3nc(-c4cccc(Cl)c4)ccc3N3CCC2CC3)sc1C [Example 569]
B (EC1.5 1-25 μM),≥ 150%,O=C(Nc1ccccn1)N1c2nc(-c3cncc(F)c3)ccc2N2CCC1CC2 [Example 570]
B (EC1.5 1-25 μM),≥ 150%,O=C(Nc1cncc(F)c1)N1c2nc(-c3cncc(F)c3)ccc2N2CCC1CC2 [Example 571]
B (EC1.5 1-25 μM),≥ 150%,O=C(Nc1cccnc1)N1c2nc(-c3cncc(F)c3)ccc2N2CCC1CC2 [Example 572]
C (EC1.5>25 μM),< 150%,O=C(Nc1ccncn1)N1c2nc(-c3cncc(F)c3)ccc2N2CCC1CC2 [Example 573]
A (EC1.5<1 μM),≥ 150%,O=C(Nc1cccc(-c2cnco2)c1)N1c2nc(-c3cncc(F)c3)ccc2N2CCC1CC2 [Example 574]
A (EC1.5<1 μM),≥ 150%,O=C(Nc1cccc(-c2cnco2)c1)N1c2nc(-c3cncc(Cl)c3)ccc2N2CCC1CC2 [Example 575]
B (EC1.5 1-25 μM),≥ 150%,O=C(Nc1ccncn1)N1c2nc(-c3cncc(Cl)c3)ccc2N2CCC1CC2 [Example 576]
B (EC1.5 1-25 μM),≥ 150%,Cc1nc(NC(=O)N2c3nc(-c4cncc(F)c4)ccc3N3CCC2CC3)sc1C [Example 577]
B (EC1.5 1-25 μM),≥ 150%,COc1cc(NC(=O)N2c3nc(-c4cncc(F)c4)ccc3N3CCC2CC3)nc(OC)n1 [Example 578]
B (EC1.5 1-25 μM),≥ 150%,COc1cc(NC(=O)N2c3nc(-c4cncc(F)c4)ccc3N3CCC2CC3)ncn1 [Example 579]
A (EC1.5<1 μM),≥ 150%,O=C(Nc1ccc(-n2cncn2)cc1)N1c2nc(-c3cccc(C(F)(F)F)c3)ccc2N2CC[C@H]1C2 [Example 580]
A (EC1.5<1 μM),≥ 150%,O=C(Nc1cccc(-n2cncn2)c1)N1c2nc(-c3cccc(C(F)(F)F)c3)ccc2N2CC[C@H]1C2 [Example 581]
B (EC1.5 1-25 μM),≥ 150%,Cc1ccc(-c2ccc(NC(=O)N3c4nc(-c5cccc(C(F)(F)F)c5)ccc4N4CC[C@H]3C4)cc2)o1 [Example 582]

Tryp AVG EC1.5 (μM),Emax,Structure (SMILES)
A (EC1.5<1 μM),≥ 150%,Cc1nc(-c2cccc(NC(=O)N3c4nc(-c5cccc(C(F)(F)F)c5)ccc4N4CC[C@H]3C4)c2)cs1 [Example 583]
B (EC1.5 1-25 μM),≥ 150%,O=C(Nc1cccnc1)N1c2nc(-c3cnn(C4CCCC4)c3)ccc2N2CC[C@H]1C2 [Example 587]
A (EC1.5<1 μM),≥ 150%,O=C(Nc1cccc(-c2cnco2)n1)N1c2nc(-c3cccc(C(F)(F)F)c3)ccc2N2CC[C@H]1C2 [Example 588]
A (EC1.5<1 μM),≥ 150%,O=C(Nc1cc(-c2cnco2)ccn1)N1c2nc(-c3cccc(C(F)(F)F)c3)ccc2N2CC[C@H]1C2 [Example 589]
A (EC1.5<1 μM),≥ 150%,O=C(Nc1cccc(-c2cnco2)n1)N1c2nc(-c3cccc(C(F)(F)F)c3)ccc2N2CCC[C@H]1C2 [Example 590]
A (EC1.5<1 μM),≥ 150%,O=C(Nc1cc(-c2cnco2)ccn1)N1c2nc(-c3cccc(C(F)(F)F)c3)ccc2N2CCC[C@H]1C2 [Example 591]
A (EC1.5<1 μM),≥ 150%,CC(C)(C)OC(=O)N1CCC(c2cccc(NC(=O)N3c4nc(-c5cccc(C(F)(F)F)c5)ccc4N4CC[C@H]3C4)c2)C1 (stereo partly shown) [Example 592]
A (EC1.5<1 μM),≥ 150%,O=C(Nc1cccc(C2CCNC2)c1)N1c2nc(-c3cccc(C(F)(F)F)c3)ccc2N2CC[C@H]1C2 (stereo partly shown) [Example 593]
A (EC1.5<1 μM),≥ 150%,NC(=O)CN1CCC(c2cccc(NC(=O)N3c4nc(-c5cccc(C(F)(F)F)c5)ccc4N4CC[C@H]3C4)c2)C1 (stereo partly shown) [Example 594]
A (EC1.5<1 μM),≥ 150%,O=C(Nc1cc(-c2cnco2)ccn1)N1c2nc(-c3cccc(C(F)(F)F)c3)ccc2N2CCC1CC2 [Example 595]
A (EC1.5<1 μM),≥ 150%,O=C(Nc1cccc(-c2cnco2)n1)N1c2nc(-c3cccc(C(F)(F)F)c3)ccc2N2CCC1CC2 [Example 596]
B (EC1.5 1-25 μM),≥ 150%,O=C(NCc1ccccc1)N1c2nc(-c3cccc(C(F)(F)F)c3)ccc2N2CC[C@H]1C2 [Example 597]
B (EC1.5 1-25 μM),≥ 150%,O=C(NCCc1ccccc1)N1c2nc(-c3cccc(C(F)(F)F)c3)ccc2N2CC[C@H]1C2 [Example 598]
B (EC1.5 1-25 μM),≥ 150%,O=C(NCCCc1ccccc1)N1c2nc(-c3cccc(C(F)(F)F)c3)ccc2N2CC[C@H]1C2 [Example 599]
B (EC1.5 1-25 μM),≥ 150%,O=C(NCCCCc1ccccc1)N1c2nc(-c3cccc(C(F)(F)F)c3)ccc2N2CC[C@H]1C2 [Example 600]
A (EC1.5<1 μM),≥ 150%,O=C(Nc1ccccn1)N1c2nc(-c3cccc(C(F)(F)F)c3)ccc2N2C[C@@H](O)[C@H]1C2 [Example 601]
B (EC1.5 1-25 μM),≥ 150%,CC(=O)O[C@@H]1CN2C[C@H]1N(C(=O)Nc1ccccn1)c1nc(-c3cccc(C(F)(F)F)c3)ccc12 [Example 602]
C (EC1.5>25 μM),< 150%,O=C(O[C@@H]1CN2C[C@H]1N(C(=O)Nc1ccccn1)c1nc(-c3cccc(C(F)(F)F)c3)ccc12)c1ccccc1 [Example 603]
A (EC1.5<1 μM),≥ 150%,CC(C)(C)OC(=O)NCCn1cc(-c2cccc(NC(=O)N3c4nc(-c5cccc(C(F)(F)F)c5)ccc4N4CCC[C@H]3C4)c2)nn1 [Example 604]
A (EC1.5<1 μM),≥ 150%,CC(C)(C)OC(=O)NCc1cn(-c2cccc(NC(=O)N3c4nc(-c5cccc(C(F)(F)F)c5)ccc4N4CC[C@H]3C4)c2)nn1 [Example 605]
A (EC1.5<1 μM),≥ 150%,NCc1cn(-c2cccc(NC(=O)N3c4nc(-c5cccc(C(F)(F)F)c5)ccc4N4CC[C@H]3C4)c2)nn1 [Example 606]
A (EC1.5<1 μM),,O=C(CCCC[C@@H]1SC[C@@H]2NC(=O)N[C@@H]21)NCCCCCC(=O)NCc1cn(-c2cccc(NC(=O)N3c4nc(-c5cccc(C(F)(F)F)c5)ccc4N4CC[C@H]3C4)c2)nn1 [Example 607]
C (EC1.5>25 μM),< 150%,O=C1OC2(c3ccc(O)cc3Oc3cc(O)ccc32)c2ccc(NC(=S)NCc3cn(-c4cccc(NC(=O)N5c6nc(-c7cccc(C(F)(F)F)c7)ccc6N6CC[C@H]5C6)c4)nn3)cc21 [Example 608]
